Source: patent US20220016273A1, “COMPOSITION FOR DIAGNOSIS OF FUNGAL INFECTION” (CNCURE BIOTECH INC., priority 2019, published 2022)

Legend:
C. albicans = assay: In vitro uptake of [^18F]FDS by cultured strains (gamma counter); type: cell-based, Candida albicans; conditions: 1×10^8 per mL, 0.74 MBq, incubated 2 hours (FIG. 3)
Description: (§1) The present inventors cultured the fungus using the following method. Specifically, Aspergillus fumigatus was smeared on potato dextrose agar medium (or YAG, yeast extract agar medium), and cultured at 30° C. for 2-3 days. Thereafter, the culture plate was washed with sterile physiological saline and Tween 20 [10 μl (1 drop)] and filtered with sterile gauze (or 40 μm-pore insertion filter). Then, the pellet was recovered using a centrifuge and the number of fungi was confirmed to prepare a bacterial solution of 1.5×10^9 conida/mL. Rhizopus arrhizus isolated from the patient was also cultured in the same way as A. fumigatus, prepared a fungal solution, and used for in vitro experiments. For Candida albicans, a strain isolated from the patient was also used, and cultured in SDA medium for 2-3 days. After recovering from the medium, a fungal solution was prepared.
(§2) The present inventors performed in vitro experiments on the strain cultured in Example 2 above. Specifically, each strain was prepared to be 1×10^8 per 1 mL of medium, and 1 mL was dispensed into tubes. The experiments were performed three times according to the experimental period, and 0.74 MBq of [^18F]FDS synthesized as described above was injected and incubated for 2 hours in the incubator. […] After washing twice with phosphate buffer, the filtered fungi were collected and the intake was measured with a gamma counter. […]

[1] = test system: A. fumigatus lung infection; assay: microPET imaging in A. fumigatus lung infection small animal model; type: in vivo; conditions: Balb/c mice infected with A. fumigatus in the lung; 7.4 MBq tail vein; image 2 hours after injection (FIG. 4)
Description: (§3) The present inventors created a lung infection model by the following method. First, after preparing Balb/c mice 8 weeks old (female), 150 mg/kg 100 μl of cyclophosphamide was intraperitoneally injected 4 days before infection. After 3 days, 100 μl of 250 mg/kg of cortisone acetate was injected into the subcutaneous fat layer, and the mice were anesthetized after 24 hours. And then the lung infection model mice were prepared by the injection of 70 μl of A. fumigatus fungal solution (about 1.5×10^7 conidia) through the nasal cavity.
(§4) The present inventors acquired microPET images 2 hours after injecting the [^18F]FDS (7.4 MBq) according to the present invention into the tail vein of the infected mice, and the acquired images were reconstructed by using the 3D-ordered subset expectation maximization (3D-OSEM) method.
The present inventors confirmed the fungal selective uptake ability of [^18F]FDS of the present invention using small animal infection models. To this end, [^18F]FDS was administered intravenously to Balb/c mice infected with A. fumigatus in the lung prepared in Example 4, and microPET images were acquired and analyzed.

[2] = test system: gram-negative bacterial strains; assay: In vitro uptake of [^18F]FDS by bacterial strains; type: cell-based; conditions: gram-negative bacterial strains (FIG. 3)
Description: (§5) The present inventors performed in vitro experiments on the strain cultured in Example 2 above. Specifically, each strain was prepared to be 1×10^8 per 1 mL of medium, and 1 mL was dispensed into tubes. The experiments were performed three times according to the experimental period, and 0.74 MBq of [^18F]FDS synthesized as described above was injected and incubated for 2 hours in the incubator. After 2 hours, each strain was divided into a filterable 1.5 mL centrifuge tube, and the fungi and medium were separated through centrifugation. After washing twice with phosphate buffer, the filtered fungi were collected and the intake was measured with a gamma counter.
(§6) The present inventors confirmed the uptake ability of [^18F]FDS of the present invention using fungal strain cultivation.

[3] = test system: gram-positive bacterial strains; assay: In vitro uptake of [^18F]FDS by bacterial strains; type: cell-based; conditions: gram-positive bacterial strains (FIG. 3)
Description: as §5, §6

[4] = test system: A. fumigatus muscle infection; assay: microPET imaging in A. fumigatus muscle infection small animal model; type: in vivo; conditions: Balb/c mice, A. fumigatus forelimb muscle infection; 7.4 MBq tail vein; image 2 hours after injection; compared to the control group (FIGS. 5-7)
Description: as §3, with “produced” for “created”, “muscle” for “lung”, “100” for “70”, “1.5×10^8” for “1.5×10^7”, “into” for “through”, “forelimb muscle of the mice.” for “nasal cavity.”
as §4

A. fumigatus = assay: In vitro uptake of [^18F]FDS by cultured strains (gamma counter); type: cell-based, Aspergillus fumigatus; conditions: 1×10^8 per mL, 0.74 MBq, incubated 2 hours (FIG. 3)
Description: as §1, §2

Rhizopus sp. = assay: as above; type: cell-based, Rhizopus arrhizus; conditions: 1×10^8 per mL, 0.74 MBq, incubated 2 hours (FIG. 3)
Description: as §1, §2

fungi = assay: In vitro uptake of [^18F]FDS, fungi compared with bacteria; type: cell-based; conditions: in vitro experiment; fungi vs bacteria
Description: as §5

With `OC[C@@H](O)[C@@H](O)[C@H](O)[C@@H]([18F])CO` [[^18F]FDS, 2-deoxy-2-[^18F]fluorosorbitol] the “uptake of [^18F]FDS” value (C. albicans) was “very high selective uptake”, the “uptake of [^18F]FDS in the lungs (microPET)” value [1] was “very high selective uptake” and the “uptake of [^18F]FDS” value [2] was “showed uptake”. The “uptake of [^18F]FDS” value [3] was “did not show no uptake”, the “uptake of [^18F]FDS at the muscle infection site (microPET)” value [4] was “very high selective uptake” and the “uptake of [^18F]FDS” value (A. fumigatus) was “very high selective uptake”. The “uptake of [^18F]FDS” value (Rhizopus sp.) was “very high selective uptake” and the “degree of uptake of [^18F]FDS by fungi relative to bacterial uptake” value (fungi) was “more than 10 times”.
